Experimental data: patent publication US20240174625A1, “COMPOSITIONS AND METHODS FOR TREATING TAUOPATHIES” (The Regents of the University of California, priority 2021, published 2024)

Key:
NPEPPS = biological target: T1, NPEPPS (Homo sapiens, UniProt P55786); test: Cell-based NPEPPS activity assay (Q-AMC fluorescence); settings: for EC50: log10 transformed, EC50 = concentration that elevates 50% NPEPPS activity (150% of DMSO baseline), HEK293T cells; for fluorescence change (NPEPPS activity): Q-AMC assay, inhibitors, FIG. 2D
T1 construct: endogenous in cells; host or cells: HEK293T
T1 sequence (P55786 whole entry): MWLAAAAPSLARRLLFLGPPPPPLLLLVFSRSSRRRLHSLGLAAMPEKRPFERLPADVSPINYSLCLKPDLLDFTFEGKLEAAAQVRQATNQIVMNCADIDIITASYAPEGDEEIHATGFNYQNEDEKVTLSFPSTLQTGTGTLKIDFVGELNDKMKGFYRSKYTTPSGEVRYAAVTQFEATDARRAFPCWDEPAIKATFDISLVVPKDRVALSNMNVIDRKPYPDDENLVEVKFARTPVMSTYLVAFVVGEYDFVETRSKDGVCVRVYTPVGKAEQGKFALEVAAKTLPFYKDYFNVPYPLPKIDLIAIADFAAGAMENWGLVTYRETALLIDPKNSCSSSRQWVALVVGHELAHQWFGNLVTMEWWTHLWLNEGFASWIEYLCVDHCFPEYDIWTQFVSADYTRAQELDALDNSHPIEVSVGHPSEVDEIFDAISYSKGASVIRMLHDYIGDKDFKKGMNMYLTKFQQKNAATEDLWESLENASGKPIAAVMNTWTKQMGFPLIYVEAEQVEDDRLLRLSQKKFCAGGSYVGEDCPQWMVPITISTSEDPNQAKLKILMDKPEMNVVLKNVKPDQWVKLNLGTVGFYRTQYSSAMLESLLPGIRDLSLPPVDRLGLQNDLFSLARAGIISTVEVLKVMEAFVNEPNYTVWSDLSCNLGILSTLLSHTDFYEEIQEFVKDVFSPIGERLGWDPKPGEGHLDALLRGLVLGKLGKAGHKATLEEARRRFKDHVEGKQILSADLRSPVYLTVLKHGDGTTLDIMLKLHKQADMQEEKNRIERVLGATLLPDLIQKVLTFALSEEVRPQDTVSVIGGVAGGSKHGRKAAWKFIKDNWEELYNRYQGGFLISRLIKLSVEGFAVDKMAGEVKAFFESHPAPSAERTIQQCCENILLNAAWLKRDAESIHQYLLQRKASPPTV
Method: HEK293T cells (AATC) were maintained in a complete media containing DMEM (Gibco 11995-065) in the presence of 10% fetal bovine serum (FBS, Gibco 10082147), […] penicillin and 50 μg/ml streptomycin (Gibco 15140163) at 37° C. with 5% CO2. NPEPPS activity assay was conducted in a fresh-prepared minimal medium containing essential amino acids, vitamin, AlbuMax (Invitrogen 11021-029) in 1×HBS buffer. Black wall, clear bottom 384-well assay plates (Greiner EK-30092) were coated with poly-L-ornithine (0.1 mg/ml, Sigma P3655) overnight and washed once with 1×PBS. 15 μl minimal medium was then added to each well. 250 nL of compounds dissolved in OmniSolve methylsulfoxide (dimethyl sulfoxide, DMSO, Sigma MX1456P) were pinned to each well via Biomek FX^P Liquid Handling Automation (Beckman Coulter) from compound source plates, i.e., either pre-made compound libraries or JMM compounds (20-step, 2-fold dilution) dissolved in OmniSolve DMSO prepared via Biomek automation in 384-well clear V-bottom polypropylene microplates (ThermoScientific 50-823-639). Cells were harvested, resuspended in minimal medium, and seeded at 16,500 cells/15 μl/well in the 384-well assay plates. 24 hrs later, 30 μl 200 μM H-Gln-AMC hydrobromide salt (Q-AMC, Bachem #I-1175) in 1×HBS containing 0.1% DMSO was added into each well. The fluorescent signal at excitation/emission wavelengths of 360/460 nm was measured immediately upon Q-AMC addition and 3 hrs post-Q-AMC. The change in fluorescence is measured as a readout of NPEPPS activity.
To identify small molecules that either increase NPEPPS levels or NPEPPS activity, a cell-based NPEPPS activity assay amenable to high-throughput screening (HTS) by adapting a fluorescent peptidase activity assay^2 was developed. Since NPEPPS is one of the only aminopeptidases capable of cleaving glutamine-peptide bonds^3 and the major aminopeptidase responsible for degradation of poly-glutamine sequences in the brain^4, a fluorogenic compound, glutamine-7-amino-4-methylcoumarin (Q-AMC), was selected as a substrate to measure NPEPPS activity. The peptide bond of Q-AMC is hydrolyzed by NPEPPS to release glutamine and a fluorescent product, 7-amino-4-methylcoumarin (AMC), when Q-AMC is added directly to the cell culture media. This change in fluorescence is measured as a readout of aminopeptidase activity (FIG. 2A). Overexpression of NPEPPS in HEK293T cells results in a significant increase in fluorescence, whereas knock-down or chemical inhibition of NPEPPS decrease fluorescence change (FIG. 2B-D), validating that the changes in fluorescence observed in the Q-AMC-based assay directly correlate with changes in NPEPPS activity. A high-throughput (HTS) screen (201,845 compounds) was conducted at the UCLA MSSR core (FIG. 2E). Follow-up assays and chemical clustering identified three series of compounds with distinct chemical clusters (FIG. 2F).
(§1) To investigate the effects of JMM compounds that enhance NPEPPS activity and assess their cellular toxicity, 139 compounds in the JMM series (i.e., JMM001-JMM139) were tested in dose responses (20-step, 2-fold dilution) using NPEPPS activity and viability assays in HEK293T cells. 76 compounds harboring different modifications produce concentration-dependent enhancement on NPEPPS activity compared to DMSO control (FIG. 4). […] A therapeutic index (TI, a ratio of IC50 over EC50) is used to evaluate the relative safety profiles of the compounds. […] 16 JMM compounds show both improved potency and reduced toxicity (EC50<10 μM and TI>10, Table 1).

HEK293T cells = test: Cell viability assay (CellTiter Glo); type: cell-based, human; settings: for IC50: Homo sapiens, HEK-293T, log10 transformed, IC50 = concentration that suppresses 50% cell viability, HEK293T cells; for Therapeutic index: ratio of IC50 (cell viability) over EC50 (NPEPPS activity)
Method: HEK293T cells (AATC) were maintained in complete media and cell viability assay was conducted in a fresh-prepared minimal medium containing essential amino acids, vitamin, AlbuMax (Invitrogen 11021-029) in 1×HBS buffer. White 384-well assay plates (Greiner EK-30080) were coated with poly-L-ornithine (0.1 mg/ml) overnight and washed once with 1×PBS. 15 μl minimal medium was then added to each well. 250 nl of compounds dissolved in OmniSolve DMSO were pinned to each well via Biomek FX^P Liquid Handling Automation from compound source plates. Cells were harvested, resuspended in minimal medium, and seeded at 16,500 cells/15 μl/well in the 384-well assay plates. 24 hrs later, 25 μl/well CellTiter Glo reagent (Promega G7572) was added into each well, and luminescence (0.5 second integration time) was acquired following manufacture's protocol. Luminescence count normalized to DMSO control is used as a readout of cell viability.
as §1

| SMILES | EC50 (NPEPPS) [µM] | fluorescence change (NPEPPS activity) (NPEPPS) | IC50 (HEK293T cells) [µM] | Therapeutic index (HEK293T cells) |
| --- | --- | --- | --- | --- |
| FC(F)(F)c1ccc(CNc2nccc3ccccc23)cc1 [JMM037] | 112 | – | 95.5 | 0.84 |
| FC(F)(F)c1ccc(CNc2n[nH]c3ccccc23)cc1 [JMM038] | 100 | – | 105 | 1.06 |
| Fc1ccc2snc(NCc3ccc(C(F)(F)F)cc3)c2c1 [JMM139, 5-Fluoro-N-(4-(trifluoromethyl)benzyl)benzo[d]isothiazol-3-amine] | 26.9 | – | 36.3 | 1.36 |
| c1ccc(COc2ccc3snc(NCc4ccc(COc5ccccc5)cc4)c3c2)cc1 [JMM124, 5-(Benzyloxy)-N-(4-(phenoxymethyl)benzyl)benzo[d]isothiazol-3-amine] | – | – | 724 | – |
| c1ccc2c(c1)CN(c1nsc3ccccc13)C2 [JMM087] | – | – | 229 | – |
| c1ccc(CNc2nsc3ccccc23)nc1 [JMM058] | 105 | – | 741 | 7.17 |
| COc1ccc(Nc2nsc3ccccc23)cc1OC [JMM025] | 372 | – | 575 | 1.54 |
| c1ccc(COc2ccc3snc(NCc4ccc(Cc5ccccc5)cc4)c3c2)cc1 [JMM120, N-(4-benzylbenzyl)-5-(benzyloxy)benzo[d]isothiazol-3-amine] | – | – | 1050 | – |
| Fc1ccc(CNc2nsc3ccccc23)cc1 [JMM011] | 316 | – | 389 | 1.25 |
| C#Cc1cccc2c(NCc3ccc(C(F)(F)F)cc3)nsc12 [JMM064] | 30.2 | – | 69.2 | 2.30 |
| FC(F)(F)c1cccc(CNc2nsc3ccccc23)c1 [JMM032] | 50.1 | – | 3090 | 62.09 |
| COc1ccc(CNc2noc3ccccc23)cc1OC [JMM040] | 251 | – | 251 | 1.00 |
| O=C(Nc1nsc2ccccc12)c1ccc2c(c1)OCCO2 [JMM006] | – | – | 282 | – |
| c1ccc2c(CNc3nsc4ccccc34)c3ccccc3cc2c1 [JMM018] | – | – | 9550 | – |
| c1ccc(COc2ccc3snc(NCc4ccc(OCc5ccccc5)c5ccccc45)c3c2)cc1 [JMM116, 5-(Benzyloxy)-N-((4-(benzyloxy)naphthalen-1-yl)methyl)benzo[d]isothiazol-3-amine] | – | – | 1000 | – |
| c1ccc(COc2ccc3snc(NC4c5ccccc5-c5ccccc54)c3c2)cc1 [JMM089] | – | – | 3310 | – |
| Cc1cc(C)c(COc2ccc(CNc3nsc4ccc(OCc5ccccc5)cc34)cc2)c(C)c1 [JMM123, 5-(Benzyloxy)-N-(4-((2,4,6-trimethylbenzyl)oxy)benzyl)benzo[d]isothiazol-3-amine] | – | – | 661 | – |
| CC(C)C[C@H](NC(=O)[C@@H](O)[C@H](N)Cc1ccccc1)C(=O)O [bestatin, reference compound] | – | decreases in fluorescence change | – | – |
| COc1ccc(C[C@H](N)C(=O)N[C@H]2[C@@H](O)[C@H](n3cnc4c(N(C)C)ncnc43)O[C@@H]2CO)cc1 [puromycin, reference compound] | – | decreases in fluorescence change | – | – |
| O=C(Nc1nsc2ccccc12)c1ccc(C(F)(F)F)cc1 [JMM007] | – | – | 1740 | – |
| COc1cccc(CNc2nsc3ccccc23)c1 [JMM010] | – | – | 97.7 | – |
| CS(=O)(=O)N(Cc1ccc(C(F)(F)F)cc1)c1nsc2ccccc12 [JMM071] | – | – | 10 | – |
| COc1ccc(CNc2nccc3ccccc23)cc1OC [JMM034] | – | – | 186 | – |
| c1ccc2c(CNc3nsc4ccccc34)nccc2c1 [JMM074] | – | – | 1820 | – |
| COc1ccc(CNc2ncnc3ccccc23)cc1OC [JMM036] | – | – | 135 | – |
| c1ccc(COc2ccc3snc(NCc4ccc(N(Cc5ccccc5)Cc5ccccc5)cc4)c3c2)cc1 [JMM126, 5-(Benzyloxy)-N-(4-(dibenzylamino)benzyl)benzo[d]isothiazol-3-amine] | – | – | 1260 | – |
| O=C1c2ccccc2C(=O)N1c1nsc2cnccc12 [JMM085] | – | – | 3160 | – |

Second part, led by results:

| EC50 (NPEPPS) [µM] | fluorescence change (NPEPPS activity) (NPEPPS) | SMILES | IC50 (HEK293T cells) [µM] | Therapeutic index (HEK293T cells) |
| --- | --- | --- | --- | --- |
| 4.47 | – | Brc1ccc(COc2ccc(CNc3nsc4ccc(OCc5ccccc5)cc34)cc2)cc1 [JMM113, 5-(Benzyloxy)-N-(4-((4-bromobenzyl)oxy)benzyl)benzo[d]isothiazol-3-amine] | 18.6 | 4.18 |
| 32.4 | – | Clc1ccc(CNc2nsc3ccccc23)cc1Cl [JMM021] | 58.9 | 1.80 |
| 18.6 | – | CN(Cc1ccc(SC(F)(F)F)cc1)c1nsc2ccc(OCc3ccccc3)cc12 [JMM098] | 107 | 5.68 |
| 63.1 | – | N#Cc1ccc(CNc2nsc3ccccc23)cc1 [JMM044] | 417 | 6.68 |
| 70.8 | – | C[C@H](Nc1nsc2ccccc12)c1cccc2ccccc12 [JMM101] | 407 | 5.74 |
| 1.05 | – | Clc1ccc(COc2ccc(CNc3nsc4ccc(OCc5ccccc5)cc34)cc2)cc1Cl [JMM103] | 1620 | 1543.93 |
| 4.17 | – | c1ccc(COc2ccc3snc(NCc4ccc(OCC5CC5)cc4)c3c2)cc1 [JMM135, 5-(Benzyloxy)-N-(4-(cyclopropylmethoxy)benzyl)benzo[d]isothiazol-3-amine] | 6.46 | 1.54 |
| 63.1 | – | Fc1ccc2snc(NCc3ccc(OCc4ccccc4)cc3)c2c1 [JMM130, N-(4-(Benzyloxy)benzyl)-5-fluorobenzo[d]isothiazol-3-amine] | 224 | 3.56 |
| 5.62 | – | CN(Cc1ccc(OCc2ccc(Cl)cc2)cc1)c1nsc2ccc(OCc3ccccc3)cc12 [JMM108, 5-(Benzyloxy)-N-(4-((4-chlorobenzyl)oxy)benzyl)-N-methylbenzo[d]isothiazol-3-amine] | 40.7 | 7.13 |
| 2.63 | – | CN(Cc1ccc(SC(F)(F)F)cc1)c1nsc2ccccc12 [JMM082] | 75.9 | 29.32 |
| 0.977 | – | CN(Cc1ccc(OCc2ccccc2)cc1)c1nsc2ccc(OCc3ccccc3)cc12 [JMM088] | 97.7 | 100.53 |
| 3.55 | – | CN(Cc1ccccc1C(F)(F)F)c1nsc2ccccc12 [JMM079] | 69.2 | 19.15 |
| 4.07 | – | CN(Cc1ccc(OCc2ccc(Cl)c(Cl)c2)cc1)c1nsc2ccc(OCc3ccccc3)cc12 [JMM109, 5-(Benzyloxy)-N-(4-((3,4-dichlorobenzyl)oxy)benzyl)-N-methylbenzo[d]isothiazol-3-amine] | 60.3 | 14.99 |
